Experiment [1] concerns LPS-activated J774.A1 cells. On the set-up: method as in PMID 17637182. As to conditions: cited from earlier work.
Experiment [2] can be described thus: DPPH radical scavenging assay. As to conditions: 30 min, 517 nm. On the procedure:
(§1) Three in vitro antioxidant assays, namely, 2,2′-azinobis-(3-ethylbenzothiazoline-6-sulfonic acid (ABTS), 2,2′-diphenyl-1-picrylhydrazyl (DPPH), and ferric ion reducing antioxidant power (FRAP), were used to determine the antioxidant activity according to methods previously reported. Ascorbic acid (0 to 200 μg/mL) was used as positive control in these experiments, and Formula (1) below allowed us to evaluate the percentage of radical scavenging capacity. The inhibitory concentration (IC50) values were evaluated by plotting a nonlinear graph of percentage radical scavenging capacity versus logarithm of tested concentrations. Scavenging capacity (%) = [(A0 − A1)/A0] × 100(1) where A0 is absorbance of negative control, and A1 is absorbance of extract with ABTS^•+ radical cation.
To be able to determine the DPPH^• scavenging capacity of EMME, we performed a serial dilution of 40 μL of the sample (1 mg/mL) with methanol on a 96-well microtiter plate, with 160 μL of solution of DPPH^• thereafter (25 μg/mL). The incubation at 25 °C in the dark was performed after 30 min, with the absorbance values measured at 517 nm on a SpectraMax iD3 multi-mode microplate against a blank (extract plus methanol without DPPH^•). […]. Methanol with DPPH^• served as the negative control. Using Formula (1), the DPPH scavenging capability was calculated at the measured concentrations above, and as previously enumerated, the IC50 values were also calculated, as indicated in the previously described procedure.
(§2) The IC50 values were calculated for each biological experiment using the nonlinear regression curve of the % inhibitory activity versus the logarithm (log10) of the various tested concentrations using GraphPad Prism 6.0 software (GraphPad Software, Inc., San Diego, CA, USA). The data are shown as mean ⁱ SEM (standard error of the mean) values, and all biological experiments were conducted in triplicate (n = 3). The statistical analysis was conducted using GraphPad Prism 6.0 software (GraphPad Software, Inc., San Diego, CA, USA). One-way analysis of variance (ANOVA) was used to compare the data across the tested samples and/or controls, and Student–Newman–Keuls or Dunnett’s tests were then performed. A p-value of less than 0.05 indicated a significant difference in the results.
On the technique in general: The DPPH test is a chemical assay of radical scavenging.

The nature of experiment [3]: Ferric reducing antioxidant power (FRAP) assay. As to conditions: relative to 200 µg/mL gallic acid, 700 nm. On the procedure:
as §1
The generally used and almost standard method for performing the FRAP test is that developed by Benzie and Strain [15]. Indeed, the antioxidant power is determined in a colorimetric reaction linked to redox in which an intense blue-colored ferroustripyridyltriazine (Fe^2+-TPTZ) complex is obtained via reduction at a low pH of ferrictripyridyltriazine (Fe^3+-TPTZ). The incubation of a quantity of 50 μL of EMME (1.56 to 200 μg/mL) or 200 μg/mL of gallic acid (Merck, Lethabong, South Africa) on a 96-well plate was carried out with 50 μL of 1% potassium ferricyanide (prepared in 0.2 M of sodium phosphate buffer, pH 6.6) for 30 min at 50 °C. Then, 50 μL of 10% trichloroacetic acid (TCA), 40 μL of distilled water, and 10 μL of 0.1% ferric chloride were added, respectively. The absorbance values were recorded on a blank (extract plus sodium phosphate buffer) at 700 nm on a SpectraMax iD3 multi-mode microplate reader (Molecular Devices, San Jose, CA, USA); the FRAP activity was indicated as inhibition percentage of 200 μg/mL of gallic acid.
as §2

Experiment [4] concerns LPS-stimulated RAW 264.7 cells. Kind of experiment: ROS production in LPS-stimulated RAW 264.7 cells (DCFH-DA). As to conditions: 25, 50, 100 µg/mL, 2 h pre-treatment, 200 ng/mL LPS 24 h. It counts as cell-based, murine. On the procedure:
For ROS production inhibition, on a black/clear bottom 96-well plate, RAW 264.7 cells were seeded at a density of 10,000 cells per well. The cells were then pre-treated with non-toxic quantities of EMME and genistin (5) at 25, 50, and 100 µg/mL for two hours and then exposed to 200 ng/mL of LPS for twenty-four hours under standard culture conditions. Thereafter, the cells were washed twice with PBS, followed by the addition of 100 µL of fresh FBS-free medium containing 10 µM of the fluorescent probe 2′,7′-dichlorodihydrofluorescein diacetate (DCFH-DA) (Sigma-Aldrich, Darmstadt, Germany). After 30 min of additional incubation under usual culture conditions, PBS was added to the plate in place of the fluorescent probe. The fluorescence of the cells was measured using a SpectraMax iD3 multi-mode microplate reader (Molecular Devices, San Jose, CA, USA) at 485 nm (excitation) and 535 nm (emission). The percentage of cells treated with DMSO 0.5% without LPS, known as the negative control, was used to express the intracellular ROS levels. Using an excitation/emission filter (480/535 nm) on a 40× objective, images were taken with a camera (Flexacam C1, Leica Microsystems, Wetzlar, Germany) attached to a fluorescence microscope (Leica Microsytems GmbH, Wetzlar, Germany).

The nature of experiment [5]: ABTS radical scavenging assay. As to conditions: 5 min, 734 nm. On the procedure:
as §1
Specifically, 2.45 mM of potassium persulfate and 7 mM of ABTS solution were dissolved in methanol and combined to create the ABTS^•+ radical cation, which was stored at 25 °C for a minimum of 16 h. At 734 nm, the absorbance of the generated ABTS^•+ was measured using a SpectraMax iD3 multi-mode microplate reader (Molecular Devices, San Jose, CA, USA) and calibrated to 0.70 ± 0.02. After carefully diluting 40 μL of EMME (1 mg/mL) with methanol and adding 160 μL of (ABTS^•+) radical cation, the 96-well microtiter plate was left to sit at 25 °C in the dark for five minutes. Using a SpectraMax iD3 multi-mode microplate reader, the absorbance values were measured at 734 nm against the blank (extract plus methanol without ABTS^•+). A nonlinear curve representing the percentage of ABTS^•+ scavenging capacity vs. a logarithm of tested concentrations was then plotted to determine the inhibitory concentration (IC50) values.
as §2

The subject of experiment [6] is LPS-stimulated RAW264.7 cells. On the set-up: method as in PMID 33202848, PMID 29471006. As to conditions: cited from earlier work.
In another experiment the target is T1, soybeans 15-LOX (Glycine max, UniProt P08170).
T1 construct: purchased Merck, Darmstadt, Germany
T1 sequence (P08170 1-839): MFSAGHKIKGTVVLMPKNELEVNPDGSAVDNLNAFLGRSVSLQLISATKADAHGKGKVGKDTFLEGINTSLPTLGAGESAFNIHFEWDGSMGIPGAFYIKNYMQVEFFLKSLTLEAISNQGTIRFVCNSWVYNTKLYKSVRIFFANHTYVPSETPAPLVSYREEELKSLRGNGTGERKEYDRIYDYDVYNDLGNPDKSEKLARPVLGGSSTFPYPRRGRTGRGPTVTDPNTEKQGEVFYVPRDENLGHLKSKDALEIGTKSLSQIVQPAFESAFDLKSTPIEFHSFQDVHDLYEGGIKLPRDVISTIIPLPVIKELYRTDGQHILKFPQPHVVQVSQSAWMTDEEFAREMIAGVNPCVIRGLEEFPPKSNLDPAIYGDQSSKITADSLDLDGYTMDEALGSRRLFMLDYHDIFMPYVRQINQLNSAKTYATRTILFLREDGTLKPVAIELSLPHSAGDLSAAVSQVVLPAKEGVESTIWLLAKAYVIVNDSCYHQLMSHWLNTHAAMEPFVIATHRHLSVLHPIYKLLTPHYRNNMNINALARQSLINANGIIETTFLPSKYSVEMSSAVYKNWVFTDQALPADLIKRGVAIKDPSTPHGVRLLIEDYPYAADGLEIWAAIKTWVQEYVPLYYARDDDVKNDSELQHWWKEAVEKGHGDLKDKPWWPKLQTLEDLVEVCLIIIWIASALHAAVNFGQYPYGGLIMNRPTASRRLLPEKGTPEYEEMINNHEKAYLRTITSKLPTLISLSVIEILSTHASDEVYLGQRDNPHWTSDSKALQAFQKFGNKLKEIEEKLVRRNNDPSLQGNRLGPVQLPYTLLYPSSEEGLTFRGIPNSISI
Kind of experiment: 15-lipoxygenase enzyme inhibitory assay (FOX). It counts as biochemical, soybean. On the procedure: The method developed by Pinto et al. was used to determine the effect of the tested samples on 15-LOX inhibitory activity, with slight modifications to the 96-well microtitre plate format. Using 20 µL of tested samples at varying concentrations (3.90 to 500 µg/mL), the soybeans 15-LOX (Merck, Darmstadt, Germany) (40 µL, 200 UI/mL) were incubated at 25 °C for 5 min. The plate was then incubated at 25 °C for 20 min in the dark; after, 40 µL of linoleic acid (final concentration, 140 μM) produced in Tris-HCl buffer (50 mM, pH 7.4) was added. A total of 100 µL of the FOX reagent—sulfuric acid (30 mM), xylenol orange (100 μM), and ferrous II) sulfate (100 μM) mixed in methanol/water (9:1)—was added to terminate the test. A SpectraMax iD3 multi-mode microplate reader (Molecular Devices, San Jose, CA, USA) was used to measure the absorbance at 560 nm following 30 min of incubation at 25 °C in the dark. Gallic acid (0.78 to 100 µg/mL) was employed as the usual inhibitor of 15-LOX, while DMSO at 5% (v/v) served as the negative control. With the exception of adding the substrate after the FOX reagent, the blanks were prepared exactly like the tested samples. Formula (2) below was used to compute the 15-LOX inhibitory activity. 15 LOX inhibitory activity (%) = 100 − [(A0 − A1) − (A2 − A1)] × 100(2) where A0 is absorbance of test samples, A1 is absorbance of blank, and A2 is absorbance of negative control (DMSO 5%).
as §2

Experiment [7] concerns LPS-stimulated RAW 264.7 cells. Briefly: NO production inhibition in LPS-stimulated RAW 264.7 cells (Griess). The class given is cell-based, murine. As to conditions: Mus musculus, RAW264.7; RAW 264.7, 2 h pre-treatment, 500 ng/mL LPS 24 h. On the procedure:
[…] in a humidified environment containing 5% CO2 and 95% air. For NO and ROS production inhibition assays, the cytotoxic effect of tested samples at 100 µg/mL after 24 h of exposure was initially measured on RAW 264.7 cells (10,000 cells per well) using the standard MTT assay. Then, for NO production inhibition assay, RAW 264.7 cells were pre-treated with tested samples at 100 µg/mL for 2 h followed by addition of culture medium containing 500 ng/mL of lipopolysaccharide (LPS) (Merck, Darmstadt, Germany). After 24 h of incubation under standard cell-culture conditions, NO released was measured in cell supernatants using the Griess reagent (Sigma Aldrich, Darmstadt, Germany), and a SpectraMax iD3 multi-mode microplate reader (Molecular Devices, San Jose, CA, USA) was used to capture the absorbance readings at 540 nm. The ability of each tested material to reduce nitric oxide synthesis by LPS-stimulated RAW 264.7 macrophages in comparison to the negative control (cells treated with DMSO at 0.5% and LPS without extract) was used to calculate the percentage of NO production inhibition.
as §2
Background: Nitrite, measured by Griess reagent, commonly stands in for NO production.

Experiment [8] relates to prostaglandins, iNOS, pro-inflammatory cytokines, ROS, NF-κB signaling pathway. On the set-up: method as in PMID 35140617, PMID 32115816. As to conditions: down-regulation of prostaglandins; cited from earlier work.

Molecules are shown by their SMILES. In brackets after ≈: the same amount, converted by molar mass.

For `O=c1cc(-c2ccc(O)cc2)oc2cc(O[C@@H]3O[C@H](CO)[C@@H](O)[C@H](O)[C@H]3O[C@@H]3OC[C@](O)(CO)[C@H]3O)cc(O)c12` [Apiin], the “Inhibitory activity on NO production and iNOS expression” value in experiment [1] is “significant inhibitory activity”.

In the case of `O=C1O[C@H]([C@@H](O)CO)C(O)=C1O` [Ascorbic acid, reference compound], the “IC50 DPPH” value in [2] is on record as 4.08 ± 1.04 µg/mL (≈ 23.2 µM). The “IC50 FRAP” value in experiment [3] was 23.68 ± 2.89 µg/mL (≈ 134 µM). Further, in experiment [4], the “Inhibition of LPS-induced ROS production” value was “significantly inhibit”. Also, the “IC50 ABTS” value in experiment [5] is reported as 1.28 ± 0.81 µg/mL (≈ 7.27 µM).

As for `C[C@@H]1O[C@@H](O[C@H]2C(=O)c3c(O)cc(O)cc3O[C@@H]2c2ccc(O)c(O)c2)[C@H](O)[C@H](O)[C@H]1O` [Astilbin], the “Inhibition of IL-1β, IL-6, NO production and NF-κB-p65 expression” value in experiment [6] is on record as “significantly inhibiting”.

Usually IC50 stands for the concentration at which inhibition is half-maximal. For `O=C(O)c1cc(O)c(O)c(O)c1` [Gallic acid, reference compound], the IC50 at soybeans 15-LOX was 145 µM.

Regarding `O=c1c(O)c(-c2ccc(O)c(O)c2)oc2cc(O)cc(O)c12` [Quercetin, reference compound], the half-maximal inhibitory concentration (IC50) in [7] amounted to 8.93 ± 0.4 µg/mL (≈ 29.5 µM).

Consider `O=c1c(-c2ccc(O)cc2)coc2cc(O)cc(O)c12` [genistein], for which, in experiment [8], the Anti-inflammatory activities result was “strong anti-inflammatory activities”.

The values above are taken from publication PMC11678782, “The Antioxidant and Anti-Inflammatory Activities of the Methanolic Extract, Fractions, and Isolated Compounds from Eriosema montanum Baker f. (Fabaceae)” (Molecules, 2024).
